Measured values: US5288720A, “Angiotensin II receptor blocking 2,3,6 substituted quinazolinones” (American Cyanamid Company, priority 1993, dated 1994)

Test system: ANGIOTENSIN II VASOPRESSOR RESPONSE
Assay: AII Challenge: blockade of angiotensin II vasopressor response in conscious SHR
Assay type: in vivo, rat (Conscious Male Okamoto-Aoki SHR)
Conditions: SHR n=2
How it was run: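 Percent blockade is derived from the systolic pressure rise in mmHg, taking each rat's own predose response as 100%. Rats were conscious male Okamoto-Aoki SHR, 16-20 weeks, ~330 g, with aortic and caval cannulas under local procaine. Compound went i.v., i.p. or orally, then angiotensin II challenges (0.05 and 0.1 ug/kg i.v.) at 30-300 min.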

[1] = 3 mg/kg i.v., AII 0.05 mcg/kg IV, 30 min post dose
[2] = 3 mg/kg i.v., AII 0.05 mcg/kg IV, 60 min post dose
[3] = 3 mg/kg i.v., AII 0.05 mcg/kg IV, 90 min post dose
[4] = 3 mg/kg i.v., AII 0.05 mcg/kg IV, 120 min post dose
[5] = 3 mg/kg i.v., AII 0.05 mcg/kg IV, 180 min post dose
[6] = 3 mg/kg i.v., AII 0.05 mcg/kg IV, 240 min post dose
[7] = 3 mg/kg i.v., AII 0.05 mcg/kg IV, 300 min post dose
[8] = 3 mg/kg i.v., AII 0.1 mcg/kg IV, 30 min post dose
[9] = 3 mg/kg i.v., AII 0.1 mcg/kg IV, 60 min post dose
[10] = 3 mg/kg i.v., AII 0.1 mcg/kg IV, 120 min post dose
[11] = 3 mg/kg i.v., AII 0.1 mcg/kg IV, 180 min post dose
[12] = 3 mg/kg i.v., AII 0.1 mcg/kg IV, 240 min post dose
[13] = 3 mg/kg i.v., AII 0.1 mcg/kg IV, 300 min post dose
[14] = 3 mg/kg p.o., AII 0.05 mcg/kg IV, 30 min post dose
[15] = 3 mg/kg p.o., AII 0.05 mcg/kg IV, 60 min post dose
[16] = 3 mg/kg p.o., AII 0.05 mcg/kg IV, 90 min post dose
[17] = 3 mg/kg p.o., AII 0.05 mcg/kg IV, 120 min post dose
[18] = 3 mg/kg p.o., AII 0.05 mcg/kg IV, 180 min post dose
[19] = 3 mg/kg p.o., AII 0.05 mcg/kg IV, 240 min post dose
[20] = 3 mg/kg p.o., AII 0.1 mcg/kg IV, 30 min post dose
[21] = 3 mg/kg p.o., AII 0.1 mcg/kg IV, 60 min post dose
[22] = 3 mg/kg p.o., AII 0.1 mcg/kg IV, 90 min post dose
[23] = 3 mg/kg p.o., AII 0.1 mcg/kg IV, 120 min post dose
[24] = 3 mg/kg p.o., AII 0.1 mcg/kg IV, 180 min post dose
[25] = 3 mg/kg p.o., AII 0.1 mcg/kg IV, 240 min post dose
[26] = 10 mg/kg p.o., AII 0.05 mcg/kg IV, 30 min post dose
[27] = 10 mg/kg p.o., AII 0.05 mcg/kg IV, 60 min post dose
[28] = 10 mg/kg p.o., AII 0.05 mcg/kg IV, 90 min post dose
[29] = 10 mg/kg p.o., AII 0.05 mcg/kg IV, 120 min post dose
[30] = 10 mg/kg p.o., AII 0.05 mcg/kg IV, 180 min post dose
[31] = 10 mg/kg p.o., AII 0.05 mcg/kg IV, 240 min post dose
[32] = 10 mg/kg p.o., AII 0.05 mcg/kg IV, 300 min post dose
[33] = 10 mg/kg p.o., AII 0.1 mcg/kg IV, 30 min post dose
[34] = 10 mg/kg p.o., AII 0.1 mcg/kg IV, 60 min post dose
[35] = 10 mg/kg p.o., AII 0.1 mcg/kg IV, 90 min post dose
[36] = 10 mg/kg p.o., AII 0.1 mcg/kg IV, 120 min post dose
[37] = 10 mg/kg p.o., AII 0.1 mcg/kg IV, 180 min post dose
[38] = 10 mg/kg p.o., AII 0.1 mcg/kg IV, 240 min post dose
[39] = 10 mg/kg p.o., AII 0.1 mcg/kg IV, 300 min post dose

CCCCc1nc2ccc(C(O)C3CCN(C)C3=O)cc2c(=O)n1Cc1ccc(-c2ccccc2-c2nn[nH]n2)cc1 (single isomer, unassigned; isomer 2) [Example 33, 2-Butyl-6-[hydroxy(1-methyl-2-oxo-3-pyrrolidinyl)methyl-3-[[2'-(1H-tetrazol-5-yl)[1,1'-biphenyl]-4-yl]methyl]-4(3H)-quinazolinone isomer 2]
% Inhibition of AII vasopressor response [1]: 100% | Average Change (systolic blood pressure response to AII) [1]: 0 mmHg | % Inhibition of AII vasopressor response [2]: 100% | Average Change (systolic blood pressure response to AII) [2]: 0 mmHg | % Inhibition of AII vasopressor response [3]: 100% | Average Change (systolic blood pressure response to AII) [3]: 0 mmHg | % Inhibition of AII vasopressor response [4]: 100% | Average Change (systolic blood pressure response to AII) [4]: 0 mmHg | % Inhibition of AII vasopressor response [5]: 81% | Average Change (systolic blood pressure response to AII) [5]: 7.5 mmHg | % Inhibition of AII vasopressor response [6]: 56% | Average Change (systolic blood pressure response to AII) [6]: 17.5 mmHg | % Inhibition of AII vasopressor response [7]: 44% | Average Change (systolic blood pressure response to AII) [7]: 22.5 mmHg | % Inhibition of AII vasopressor response [8]: 86% | Average Change (systolic blood pressure response to AII) [8]: 7.5 mmHg | % Inhibition of AII vasopressor response [9]: 89% | Average Change (systolic blood pressure response to AII) [9]: 6 mmHg | Average Change (systolic blood pressure response to AII) (3 mg/kg i.v., AII 0.1 mcg/kg IV, 90 min post dose): 7.5 mmHg | % Inhibition of AII vasopressor response [10]: 81% | Average Change (systolic blood pressure response to AII) [10]: 10 mmHg | % Inhibition of AII vasopressor response [11]: 52% | Average Change (systolic blood pressure response to AII) [11]: 25 mmHg | % Inhibition of AII vasopressor response [12]: 33% | Average Change (systolic blood pressure response to AII) [12]: 35 mmHg | % Inhibition of AII vasopressor response [13]: 38% | Average Change (systolic blood pressure response to AII) [13]: 32.5 mmHg | % Inhibition of AII vasopressor response [14]: 80% | Average Change (systolic blood pressure response to AII) [14]: 10 mmHg | % Inhibition of AII vasopressor response [15]: 65% | Average Change (systolic blood pressure response to AII) [15]: 17.5 mmHg | % Inhibition of AII vasopressor response [16]: 50% | Average Change (systolic blood pressure response to AII) [16]: 25 mmHg | % Inhibition of AII vasopressor response [17]: 63% | Average Change (systolic blood pressure response to AII) [17]: 18.5 mmHg | % Inhibition of AII vasopressor response [18]: 35% | Average Change (systolic blood pressure response to AII) [18]: 32.5 mmHg | % Inhibition of AII vasopressor response [19]: 30% | Average Change (systolic blood pressure response to AII) [19]: 35 mmHg | % Inhibition of AII vasopressor response [20]: 63% | Average Change (systolic blood pressure response to AII) [20]: 17.5 mmHg | % Inhibition of AII vasopressor response [21]: 47% | Average Change (systolic blood pressure response to AII) [21]: 25 mmHg | % Inhibition of AII vasopressor response [22]: 37% | Average Change (systolic blood pressure response to AII) [22]: 30 mmHg | % Inhibition of AII vasopressor response [23]: 53% | Average Change (systolic blood pressure response to AII) [23]: 22.5 mmHg | % Inhibition of AII vasopressor response [24]: 21% | Average Change (systolic blood pressure response to AII) [24]: 37.5 mmHg | % Inhibition of AII vasopressor response [25]: 0% | Average Change (systolic blood pressure response to AII) [25]: 47.5 mmHg

CCCCc1nc2ccc(C(O)C3CCCN(C)C3=O)cc2c(=O)n1Cc1ccc(-c2ccccc2-c2nn[nH]n2)cc1 (single isomer, unassigned; isomer 2) [Example 38, 2-Butyl-6-hydroxy(1-methyl-2-oxo-3-piperidinyl)methyl-3-[[2'-(1H-tetrazol-5-yl)[1,1'-biphenyl]-4-yl]methyl-4(3H)-quinazolinone isomer 2]
% Inhibition of AII vasopressor response [14]: 70% | Average Change (systolic blood pressure response to AII) [14]: 7.5 mmHg | % Inhibition of AII vasopressor response [15]: 50% | Average Change (systolic blood pressure response to AII) [15]: 12.5 mmHg | % Inhibition of AII vasopressor response [16]: 46% | Average Change (systolic blood pressure response to AII) [16]: 13.5 mmHg | % Inhibition of AII vasopressor response [17]: 70% | Average Change (systolic blood pressure response to AII) [17]: 7.5 mmHg | % Inhibition of AII vasopressor response [18]: 70% | Average Change (systolic blood pressure response to AII) [18]: 7.5 mmHg | % Inhibition of AII vasopressor response [19]: 40% | Average Change (systolic blood pressure response to AII) [19]: 15 mmHg | % Inhibition of AII vasopressor response [20]: 57% | Average Change (systolic blood pressure response to AII) [20]: 15 mmHg | % Inhibition of AII vasopressor response [21]: 20% | Average Change (systolic blood pressure response to AII) [21]: 27.5 mmHg | % Inhibition of AII vasopressor response [22]: 32% | Average Change (systolic blood pressure response to AII) [22]: 23.5 mmHg | % Inhibition of AII vasopressor response [23]: 52% | Average Change (systolic blood pressure response to AII) [23]: 16.5 mmHg | % Inhibition of AII vasopressor response [24]: 28% | Average Change (systolic blood pressure response to AII) [24]: 25 mmHg | % Inhibition of AII vasopressor response [25]: 16% | Average Change (systolic blood pressure response to AII) [25]: 29 mmHg | % Inhibition of AII vasopressor response [26]: 50% | Average Change (systolic blood pressure response to AII) [26]: 25 mmHg | % Inhibition of AII vasopressor response [27]: 40% | Average Change (systolic blood pressure response to AII) [27]: 30 mmHg | % Inhibition of AII vasopressor response [28]: 25% | Average Change (systolic blood pressure response to AII) [28]: 37.5 mmHg | % Inhibition of AII vasopressor response [29]: 50% | Average Change (systolic blood pressure response to AII) [29]: 25 mmHg | % Inhibition of AII vasopressor response [30]: 5% | Average Change (systolic blood pressure response to AII) [30]: 47.5 mmHg | % Inhibition of AII vasopressor response [31]: -5% | Average Change (systolic blood pressure response to AII) [31]: 52.5 mmHg | % Inhibition of AII vasopressor response [32]: 0% | Average Change (systolic blood pressure response to AII) [32]: 50 mmHg | % Inhibition of AII vasopressor response [33]: 35% | Average Change (systolic blood pressure response to AII) [33]: 37.5 mmHg | % Inhibition of AII vasopressor response [34]: 39% | Average Change (systolic blood pressure response to AII) [34]: 35 mmHg | % Inhibition of AII vasopressor response [35]: 35% | Average Change (systolic blood pressure response to AII) [35]: 37.5 mmHg | % Inhibition of AII vasopressor response [36]: 43% | Average Change (systolic blood pressure response to AII) [36]: 32.5 mmHg | % Inhibition of AII vasopressor response [37]: 13% | Average Change (systolic blood pressure response to AII) [37]: 50 mmHg | % Inhibition of AII vasopressor response [38]: 22% | Average Change (systolic blood pressure response to AII) [38]: 45 mmHg | % Inhibition of AII vasopressor response [39]: 4% | Average Change (systolic blood pressure response to AII) [39]: 55 mmHg
